Measurements published in PubChem BioAssay AID248 (DTP/NCI, 2004).
Where “and” joins values, the source holds several entries; their conditions need not be identical. Equal entries are not always repeated. Inconclusive results and toxic doses are left out.

System: L1210 leukemia ip in BDF1 mice, survival T/C
Experiment: NCI In Vivo Anticancer Drug Screen. Data for tumor model L1210 Leukemia (intraperitoneal) in B6D2F1 (BDF1) mice
Settings: endpoint: mean survival time, higher = longer survival
Summary of the method: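 In this screen, tumor-bearing mice given compound are compared to those given vehicle, and their survival values are reported as a treated-to-control quotient.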

C=CC(CN1CC1)OC(C)=O (stereo unspecified)
T/C (dose: 0.25 mg/kg/injection, schedule: Q03DX Z (ip), vehicle: saline): 104 % of control | T/C (dose: 0.5 mg/kg/injection, schedule: Q01DX010 (oral), vehicle: saline): 120 % of control | T/C (dose: 0.5 mg/kg/injection, schedule: Q03DX Z (ip), vehicle: saline): 98 % of control | T/C (dose: 0.95 mg/kg/injection, schedule: Q01DX Z (ip), vehicle: olive oil, sesame oil, peanut oil): 105 % of control | T/C (dose: 0.95 mg/kg/injection, schedule: Q01DX Z (oral), vehicle: olive oil, sesame oil, peanut oil): 100 % of control | T/C (dose: 1.0 mg/kg/injection, schedule: Q03DX Z (ip), vehicle: saline): 106 % of control | T/C (dose: 1.0 mg/kg/injection, schedule: Q07DX Z (ip), vehicle: saline): 105 % of control | T/C (dose: 1.2 mg/kg/injection, schedule: Q01DX Z (ip), vehicle: carboxymethylcellulose (CMC)): 104 % of control | T/C (dose: 1.24 mg/kg/injection, schedule: Q01DX Z (ip), vehicle: carboxymethylcellulose (CMC)): 109 % of control | T/C (dose: 1.3 mg/kg/injection, schedule: Q#A X Z (ip), vehicle: other): 112 % of control | T/C (dose: 1.8 mg/kg/injection, schedule: Q01DX Z (ip), vehicle: carboxymethylcellulose (CMC)): 93 % of control and 98 % of control | T/C (dose: 1.8 mg/kg/injection, schedule: Q01DX Z (oral), vehicle: carboxymethylcellulose (CMC)): 102 % of control | T/C (dose: 1.9 mg/kg/injection, schedule: Q01DX Z (ip), vehicle: olive oil, sesame oil, peanut oil): 116 % of control | T/C (dose: 1.9 mg/kg/injection, schedule: Q01DX Z (oral), vehicle: olive oil, sesame oil, peanut oil): 103 % of control | T/C (dose: 1.9 mg/kg/injection, schedule: Q01DX Z (oral), vehicle: other): 102 % of control | T/C (dose: 2.0 mg/kg/injection, schedule: Q01DX006 (iv), vehicle: saline): 100 % of control | T/C (dose: 2.0 mg/kg/injection, schedule: Q01DX010 (oral), vehicle: saline): 100 % of control | T/C (dose: 2.0 mg/kg/injection, schedule: Q02DX004 (im), vehicle: saline): 116 % of control | T/C (dose: 2.0 mg/kg/injection, schedule: Q07DX Z (ip), vehicle: saline): 95 % of control | T/C (dose: 2.48 mg/kg/injection, schedule: Q01DX Z (ip), vehicle: carboxymethylcellulose (CMC)): 109 % of control | T/C (dose: 2.5 mg/kg/injection, schedule: Q01DX Z (oral), vehicle: saline): 121 % of control | T/C (dose: 2.6 mg/kg/injection, schedule: Q01DX Z (ip), vehicle: other): 117 % of control | T/C (dose: 2.6 mg/kg/injection, schedule: Q01DX Z (sc), vehicle: other): 119 % of control | T/C (dose: 2.7 mg/kg/injection, schedule: Q01DX Z (ip), vehicle: carboxymethylcellulose (CMC)): 118 % of control | T/C (dose: 3.25 mg/kg/injection, schedule: Q01DX Z (ip), vehicle: saline): 151 % of control | T/C (dose: 3.25 mg/kg/injection, schedule: Q01DX Z (oral), vehicle: saline): 161 % of control | T/C (dose: 3.7 mg/kg/injection, schedule: Q01DX Z (ip), vehicle: carboxymethylcellulose (CMC)): 93 % of control | T/C (dose: 3.7 mg/kg/injection, schedule: Q01DX Z (oral), vehicle: carboxymethylcellulose (CMC)): 101 % of control and 90 % of control | T/C (dose: 3.75 mg/kg/injection, schedule: Q01DX Z (ip), vehicle: olive oil, sesame oil, peanut oil): 122 % of control | T/C (dose: 3.75 mg/kg/injection, schedule: Q01DX Z (oral), vehicle: olive oil, sesame oil, peanut oil): 105 % of control | T/C (dose: 3.8 mg/kg/injection, schedule: Q01DX Z (ip), vehicle: olive oil, sesame oil, peanut oil): 90 % of control | T/C (dose: 3.8 mg/kg/injection, schedule: Q01DX Z (oral), vehicle: other): 120 % of control | T/C (dose: 4.0 mg/kg/injection, schedule: Q01DX006 (iv), vehicle: saline): 108 % of control | T/C (dose: 4.0 mg/kg/injection, schedule: Q01DX Z (sc), vehicle: other): 122 % of control | T/C (dose: 4.0 mg/kg/injection, schedule: Q02DX004 (im), vehicle: saline): 120 % of control | T/C (dose: 4.0 mg/kg/injection, schedule: Q07DX Z (ip), vehicle: saline): 115 % of control | T/C (dose: 4.5 mg/kg/injection, schedule: Q#A X Z (ip), vehicle: other): 102 % of control | T/C (dose: 7.5 mg/kg/injection, schedule: Q01DX009 (ip), vehicle: saline): 191 % of control | T/C (dose: 7.5 mg/kg/injection, schedule: Q01DX Z (ip), vehicle: carboxymethylcellulose (CMC)): 104 % of control | T/C (dose: 7.5 mg/kg/injection, schedule: Q01DX Z (ip), vehicle: saline): 259 % of control | T/C (dose: 7.5 mg/kg/injection, schedule: Q01DX Z (oral), vehicle: carboxymethylcellulose (CMC)): 93 % of control and 96 % of control | T/C (dose: 7.5 mg/kg/injection, schedule: Q01DX Z (oral), vehicle: olive oil, sesame oil, peanut oil): 111 % of control | T/C (dose: 7.5 mg/kg/injection, schedule: Q01DX Z (oral), vehicle: saline): 150 % of control | T/C (dose: 7.6 mg/kg/injection, schedule: Q01DX Z (oral), vehicle: olive oil, sesame oil, peanut oil): 150 % of control | T/C (dose: 7.6 mg/kg/injection, schedule: Q01DX Z (oral), vehicle: other): 88 % of control | T/C (dose: 8.0 mg/kg/injection, schedule: Q03DX Z (ip), vehicle: other): 153 % of control | T/C (dose: 8.0 mg/kg/injection, schedule: Q07DX Z (ip), vehicle: saline): 121 % of control | T/C (dose: 9.0 mg/kg/injection, schedule: Q01DX Z (ip), vehicle: other): 100 % of control | T/C (dose: 10.0 mg/kg/injection, schedule: Q01DX Z (oral), vehicle: saline): 169 % of control | T/C (dose: 11.0 mg/kg/injection, schedule: Q01DX001 (ip), vehicle: saline): 109 % of control and 118 % of control | T/C (dose: 12.0 mg/kg/injection, schedule: Q03DX Z (ip), vehicle: other): 159 % of control | T/C (dose: 14.85 mg/kg/injection, schedule: Q01DX Z (ip), vehicle: carboxymethylcellulose (CMC)): 96 % of control | T/C (dose: 15.0 mg/kg/injection, schedule: Q01DX009 (ip), vehicle: saline): 107 % of control | T/C (dose: 15.0 mg/kg/injection, schedule: Q01DX Z (ip), vehicle: carboxymethylcellulose (CMC)): 120 % of control | T/C (dose: 15.0 mg/kg/injection, schedule: Q01DX Z (ip), vehicle: saline): 111 % of control | T/C (dose: 15.0 mg/kg/injection, schedule: Q01DX Z (oral), vehicle: carboxymethylcellulose (CMC)): 102 % of control and 117 % of control | T/C (dose: 15.0 mg/kg/injection, schedule: Q01DX Z (oral), vehicle: saline): 108 % of control | T/C (dose: 15.1 mg/kg/injection, schedule: Q01DX Z (oral), vehicle: olive oil, sesame oil, peanut oil): 104 % of control | T/C (dose: 15.1 mg/kg/injection, schedule: Q01DX Z (oral), vehicle: other): 96 % of control | T/C (dose: 16.0 mg/kg/injection, schedule: Q02DX004 (im), vehicle: saline): 189 % of control | T/C (dose: 17.0 mg/kg/injection, schedule: Q01DX001 (ip), vehicle: saline): 116 % of control | T/C (dose: 18.0 mg/kg/injection, schedule: Q03DX Z (ip), vehicle: other): 112 % of control | T/C (dose: 18.0 mg/kg/injection, schedule: Q07DX Z (ip), vehicle: other): 175 % of control | T/C (dose: 19.8 mg/kg/injection, schedule: Q01DX Z (ip), vehicle: carboxymethylcellulose (CMC)): 96 % of control | T/C (dose: 20.0 mg/kg/injection, schedule: Q01DX Z (oral), vehicle: saline): 106 % of control | T/C (dose: 25.0 mg/kg/injection, schedule: Q01DX001 (ip), vehicle: saline): 153 % of control | T/C (dose: 27.0 mg/kg/injection, schedule: Q03DX Z (ip), vehicle: other): 89 % of control | T/C (dose: 28.0 mg/kg/injection, schedule: Q07DX Z (ip), vehicle: other): 158 % of control | T/C (dose: 30.0 mg/kg/injection, schedule: Q01DX Z (ip), vehicle: saline): 105 % of control | T/C (dose: 30.0 mg/kg/injection, schedule: Q01DX Z (oral), vehicle: carboxymethylcellulose (CMC)): 101 % of control and 113 % of control | T/C (dose: 30.0 mg/kg/injection, schedule: Q01DX Z (oral), vehicle: saline): 111 % of control and 88 % of control | T/C (dose: 32.0 mg/kg/injection, schedule: Q02DX004 (im), vehicle: saline): 97 % of control | T/C (dose: 32.0 mg/kg/injection, schedule: Q07DX Z (ip), vehicle: saline): 210 % of control | T/C (dose: 50.0 mg/kg/injection, schedule: Q01DX001 (ip), vehicle: saline): 94 % of control | T/C (dose: 60.0 mg/kg/injection, schedule: Q01DX Z (ip), vehicle: saline): 116 % of control | T/C (dose: 60.0 mg/kg/injection, schedule: Q01DX Z (oral), vehicle: saline): 113 % of control
